Test results as given in US20250108139A1, “PEPTIDE UREA DERIVATIVE, PHARMACEUTICAL COMPOSITION CONTAINING PEPTIDE UREA DERIVATIVE, AND APPLICATION OF PEPTIDE UREA DERIVATIVE” (BIVISION PHARMACEUTICALS, INC, priority 2022, published 2025).

Key:
PSMA protein = PSMA protein (Homo sapiens (Human), UniProt Q04609); experiment: Affinity of DB compounds to PSMA protein using Biacore (Effect Example 3); conditions: Biacore 8K, 15° C., 1:1 binding model; pKD=−Log KD
Method: The affinity of DB compounds to PSMA protein was tested using the Biacore 8K (Cytiva) instrument to detect ligand binding to PSMA protein (Sino Biological). PSMA protein was captured on an SA chip. Before fixing the ligand (flow paths 1 and 2, flow rate of 10 μL/min), PSMA protein (10 μg/mL, flow rate of 5 μL/min, injection time of 600 s) was fixed on flow path 2 using a flow buffer. The sensor surface was adjusted by continuously injecting 1 M NaCl three times in 50 mM NaOH. After each ligand injection, additional cleaning was performed using isopropanol in 1 M NaCl and 50 mM NaOH (flow paths 1 and 2, flow rate of 10 μL/min, injection time of 60 s).
All compounds were dissolved in 100% DMSO and diluted to 10 mM, then further diluted to the appropriate highest concentration in the analysis buffer (PBS, PH 7.4, 1 mM TCEP ([…]), 0.05% P20, 2% DMSO). The analysis was conducted under the following conditions: 15° C. analysis temperature; analysis steps=all set to LMW kinetics; cycle type=single cycle (90 s contact time, 1800 s dissociation time, 30 μL/min flow rate, flow paths 1 and 2); detection in flow=path 2-1. Data evaluation was performed using Biacore Insight Evaluation Software, fitting the data to a 1:1 binding model.
Biacore results are shown in Table 5: pKD=−Log KD, wherein KD is the binding affinity of the compound to PSMA protein measured by Biacore. It is expressed by Kd (M)=Kd (1/s)/Ka (1/Ms). A indicates pKD>8; B indicates 7<pKD<8; C indicates 6<pKD<7; D indicates pKD<6.

[1] = system: PSMA-positive 22rv1 tumor-bearing mouse; experiment: 177Lu labeling and animal biodistribution experiment, gamma counter; assay type: in vivo; conditions: 177Lu-labeled compound, 24 h after tail vein injection, n = 2
Method: Distribution in PSMA-positive tumor-bearing mouse tissues: Tumor-bearing animals (purchased from Shanghai Alamo Pharmaceutical Technology Co., Ltd.) were subcutaneously inoculated with 3×10^6 22rv1 cells (in 50% Matrigel, Corning) into the right shoulder region of 6-9 week old (Balb/c Nude) mouse. Once the tumors had grown to an appropriate size, ^177Lu-radiolabeled DB compounds were injected into the mouse via the tail vein (approximately 1.85 MBq-3.7 MBq/mouse, specific activity: 22423.82 Kbq/μg). After administration, the animals were euthanized using carbon dioxide inhalation at 24 hours. The blood and organs (blood, liver, kidney, muscle, tumor) were collected.
Blood was collected through the abdominal aorta and 100 μL was immediately quantified into designated centrifuge tubes (weighed). After collection, the organs were washed twice with deionized water, dried, placed in pre-weighed tubes, and weighed again to calculate the sample weight. Samples were measured on the day of collection. All blood and tissue samples were measured for radioactivity using a gamma counter. The results are shown in FIGS. 3, 4, 5, 6, 7, and Table 6.

[2] = target: PSMA-expressing cells (22Rv1) (Homo sapiens (Human), UniProt Q04609); experiment: Competitive binding against radiolabeled PSMA-617 ligand on 22Rv1 cells; conditions: unlabeled compound vs radiolabeled PSMA-617 ligand, on ice 2 hours
Method: (1) 22Rv1 cells in the logarithmic growth phase were prepared into a cell suspension, and the cell density was adjusted to 1×10^4 cells/mL. 1 mL of the cell suspension was seeded into each well of a 24-well cell culture plate. The cells were cultured overnight in a 37° C. incubator.
(2) The cell culture medium was aspirated, and the cells were washed once with PBS. Then, 975 μL of additive-free medium was added.
(3) To each well, 25 μL of a fixed concentration of radiolabeled PSMA-617 ligand (final concentration in the medium: 2 μCi/mL) and different concentrations (final concentrations in the medium: 1000 ng/ml, 100 ng/mL, 10 ng/mL, 1 ng/mL, 0.1 ng/mL, 0.01 ng/mL, 0.001 ng/mL, 0 ng/ml) of the unlabeled test blocking compounds DB-18, DB-19, DB-13, E-3 were added.
(4) The cells were incubated on ice for 2 hours.
(5) The cells were washed three times with ice-cold PBS.
(6) The cells were lysed with 0.5 mL of 1 M sodium hydroxide, and washed twice with 0.5 mL PBS. The sodium hydroxide (0.5 mL) and PBS (0.5 mL×2) solutions were collected for uptake counting.

[3] = Determination of Log P (n-octanol/water partition); assay type: physicochemical; conditions: 177Lu-labeled compound, mean of three tubes
Method: Three EP tubes were prepared, each containing 0.1 mL of saturated n-octanol and 80 μL of ultrapure water. Then, 20 μL (approximately 1 MBq) of the ^177Lu-labeled DB-13, DB-18, and DB-19 compound solutions were added to the respective tubes. After shaking evenly, the tubes were centrifuged at room temperature (2000 r/min, 5 minutes, centrifugation radius of 10 cm). From each tube, 100 μL was taken from both the lipid layer and the aqueous layer, and the radioactivity counts per minute for both phases were measured. The Log P values were calculated, and their mean values were taken as the final result.

albumin in rat plasma = experiment: Plasma protein binding (PPB) test by ultrafiltration; assay type: in vitro ADME; conditions: 177Lu-labeled compound
Method: The labeled compounds ^177Lu-E-3, 177Lu-DB-13, 177Lu-DB-18, and ^177Lu-DB-19 (1 μCi) were prepared in a reaction solution by adding 50 μL of PBS to achieve a concentration of 20 μCi/mL. 50 μL of the 20 μCi/mL reaction solution was added to 200 μL of plasma, repeated for 3 tubes. The mixture was mixed well and incubated at room temperature for 10 minutes, then added to ultrafiltration tubes and centrifuged at 13000 rpm for 45 minutes. Following this, 50 μL of normal saline was added and the samples were centrifuged again for 15 minutes. The upper chamber and the filtrate were respectively counted for radioactivity.
PPB=[(upper chamber counts−background counts]/(filtrate counts+upper chamber counts−2*background counts)]*100%.

LNCaP cells = experiment: Cell killing, CCK8 assay; assay type: cell-based; conditions: 177Lu-labeled, 45 μCi/mL, CCK8 on fifth day
Method: A. LNCaP cells in the logarithmic growth phase were prepared into a cell suspension, and the cell density was adjusted to 1×10^5 cells/mL. 1 mL of the cell suspension was seeded into each well of a 24-well cell culture plate. The cells were cultured for 24 hours in a 37° C. incubator.
B. The ^177Lu-labeled compound (^177Lu-E-3) was prepared in serum-containing culture medium at radioactive concentrations of 5, 15, and 45 μCi/mL (the unlabeled E-3 was prepared at a corresponding precursor concentration for 45 μCi/mL).
C. The experimental groups were treated with 1 mL/well of the above ^177Lu-labeled compound solutions, while the control group was treated with 1 mL/well of serum-containing culture medium.
D. The cells were cultured in the incubator for 24 hours, after which the medium was entirely replaced with fresh culture medium.
E. On the fifth day, cell proliferation in each group was monitored using an enhanced CCK8 assay kit.

[4] = system: 22rv1 tumor-bearing Balb/c Nude mouse; experiment: Treatment efficacy in 22RV1 tumor-bearing mouse model; assay type: in vivo; conditions: two doses, 0.15 mCi and 0.45 mCi
Method: Balb/c Nude mouse, approximately 6-8 weeks old, were subcutaneously inoculated with 3×10^6 22rv1 cells (in 50% Matrigel, Corning) into the right scapular region. Once the tumors reached the required size for the experiment, the animals were randomly assigned into 11 experimental groups based on tumor volume, with 5 mouse per group. The body weight and tumor size of the animals were measured. On the day of grouping, treatments were administered as follows: control group (normal saline), group 1 (^177Lu-DB-13, 0.15 mCi/mouse), group 2 (^177Lu-DB-13, 0.45 mCi/mouse), group 3 (^177Lu-DB-13, 0.05 mCi/mouse), group 4 (^177Lu-B-11, 0.05 mCi/mouse), group 5 (^177Lu-DB-11, 0.15 mCi/mouse), group 6 (^177Lu-DB-11, 0.45 mCi/mouse), group 7 (^177Lu-PSMA-617, 0.15 mCi/mouse), group 8 (^177Lu-PSMA-617, 0.45 mCi/mouse), group 9 (^177Lu-DB-19, 0.05 mCi/mouse), group 10 (^177Lu-DB-19, 0.15 mCi/mouse), group 11 (^177Lu-DB-19, 0.45 mCi/mouse). After the start of treatment, general health and appearance were observed daily. Body weight and tumor size were measured at each sampling time point. Any abnormal observations during the study were recorded in the raw data.

PSMA-expressing cells (22Rv1), sequence (Q04609 whole entry): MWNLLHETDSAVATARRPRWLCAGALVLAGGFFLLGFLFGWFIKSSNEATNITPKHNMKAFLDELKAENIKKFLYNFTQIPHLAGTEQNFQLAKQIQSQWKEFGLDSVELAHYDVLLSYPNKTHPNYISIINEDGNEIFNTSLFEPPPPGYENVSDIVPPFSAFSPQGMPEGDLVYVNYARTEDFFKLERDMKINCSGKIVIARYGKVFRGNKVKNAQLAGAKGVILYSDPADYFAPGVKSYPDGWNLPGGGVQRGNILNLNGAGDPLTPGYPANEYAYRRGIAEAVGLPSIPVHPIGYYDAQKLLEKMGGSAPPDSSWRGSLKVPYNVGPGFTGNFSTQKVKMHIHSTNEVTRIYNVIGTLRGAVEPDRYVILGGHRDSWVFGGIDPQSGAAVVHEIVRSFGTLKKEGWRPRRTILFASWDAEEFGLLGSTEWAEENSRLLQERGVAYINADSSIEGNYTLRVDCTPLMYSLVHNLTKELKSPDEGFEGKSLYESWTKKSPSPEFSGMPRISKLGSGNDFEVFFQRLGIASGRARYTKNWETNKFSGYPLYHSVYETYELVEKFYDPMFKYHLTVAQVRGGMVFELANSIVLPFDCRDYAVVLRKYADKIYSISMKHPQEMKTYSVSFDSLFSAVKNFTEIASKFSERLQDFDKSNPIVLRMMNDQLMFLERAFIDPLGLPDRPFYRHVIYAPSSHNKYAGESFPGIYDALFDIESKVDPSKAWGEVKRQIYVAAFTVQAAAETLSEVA
PSMA protein, sequence (Q04609 whole entry): as above

Row | Structure (SMILES) | Kd (PSMA protein) | Blood uptake [1] | Kidney uptake [1] | Liver uptake [1] | Muscle uptake [1] | Tumor uptake [1] | IC50 [2] | logP [3] | plasma protein binding ratio (albumin binding ratio) (albumin in rat plasma) | cell-killing rate (LNCaP cells) | tumor growth inhibition compared with PSMA-617 [4]
1 | O=C(O)CC[C@H](NC(=O)N[C@@H](CCCCNC(=O)[C@H](Cc1ccc2ccccc2c1)NC(=O)c1ccc2c(c1)CCN(C(=O)CN1CCN(CC(=O)O)CCN(CC(=O)O)CCN(CC(=O)O)CC1)C2)C(=O)O)C(=O)O [Compound E-3, reference compound] | < 10 nM | 0.02 % ID/g | 2.01 % ID/g | 0.09 % ID/g | 0.035 % ID/g | 32.875 % ID/g | 2.06 nM | -3.46 | 86.61% | – | –
2 | O=C(O)CC[C@H](NC(=O)NC(CCCCNC(=O)[C@H](Cc1ccc2ccccc2c1)NC(=O)[C@H]1CC[C@H](NC(=O)CCC(=O)NCC(=O)N2CN(C(=O)CNC(=O)CCC(=O)N[C@H]3CC[C@H](C(=O)N[C@@H](Cc4ccc5ccccc5c4)C(=O)NCCCC[C@H](NC(=O)N[C@@H](CCC(=O)O)C(=O)O)C(=O)O)CC3)CN(C(=O)CNC(=O)CN3CCN(CC(=O)O)CCN(CC(=O)O)CCN(CC(=O)O)CC3)C2)CC1)C(=O)O)C(=O)O (some centres unmarked) [DB-13] | < 10 nM | 0.025 % ID/g | 2.890 % ID/g | 0.115 % ID/g | 0.060 % ID/g | 16.195 % ID/g | 1.83 nM | -1.96 | 90.84% | 67% | –
3 | O=C(O)CC[C@H](NC(=O)NC(CCCCNC(=O)[C@H](Cc1ccc2ccccc2c1)NC(=O)c1ccc2c(c1)CCN(C(=O)c1cc(NC(=O)CN3CCN(CC(=O)O)CCN(CC(=O)O)CCN(CC(=O)O)CC3)cc(C(=O)N3CCc4cc(C(=O)N[C@@H](Cc5ccc6ccccc6c5)C(=O)NCCCC[C@H](NC(=O)N[C@@H](CCC(=O)O)C(=O)O)C(=O)O)ccc4C3)c1)C2)C(=O)O)C(=O)O (some centres unmarked) [DB-18] | < 10 nM | – | – | – | – | – | 2.58 nM | -1.86 | 70.51% | – | –
4 | O=C(O)CC[C@H](NC(=O)NC(CCCCNC(=O)[C@H](Cc1ccc2ccccc2c1)NC(=O)c1ccc2c(c1)CCN(C(=O)CNC(=O)c1cc(NC(=O)CNC(=O)CN3CCN(CC(=O)O)CCN(CC(=O)O)CCN(CC(=O)O)CC3)cc(C(=O)NCC(=O)N3CCc4cc(C(=O)N[C@@H](Cc5ccc6ccccc6c5)C(=O)NCCCC[C@H](NC(=O)N[C@@H](CCC(=O)O)C(=O)O)C(=O)O)ccc4C3)c1)C2)C(=O)O)C(=O)O (some centres unmarked) [DB-19] | < 10 nM | 1.715 % ID/g | 177.885 % ID/g | 2.725 % ID/g | 0.73 % ID/g | – | 0.93 nM | -1.79 | 59.07% | – | superior tumor growth inhibition
